Test results from patent publication US12203125B2, “Device for determining antimicrobial susceptibility of a microorganism” (Q-linea AB, priority 2015, dated 2025).
Values after ≈ are worked out from the molar mass of the structure shown.

Legend:
Type in all cases: cell-based
clinical isolate QM006 [1] = test: Reference MIC, broth micro-dilution (ISO 20776, turbidity after 16-20 hours); conditions: isolate QM006, broth micro-dilution from 0.5 McFarland, 16-20 hours growth
clinical isolate QM171 [2] = test: as above; conditions: isolate QM171, broth micro-dilution from 0.5 McFarland, 16-20 hours growth
Method: (§1) Microphotographs from the different wells were analysed to generate a numerical value of the biomass in the well and this was used as a marker of growth. From the growth a minimal inhibitory concentration was determined and compared to MIC obtained using a reference method, broth micro-dilution. […] A sample was determined to Pass (P) if within +/−1 two-fold dilution from the reference MIC.

clinical isolate QM171 [3] = test: Rapid AST: MIC calculated from microphotographs (biomass imaging, 0 to 4 hours) of isolate recovered from blood culture flask below 0.5 McFarland
Method: (§2) Dilutions of two different bacterial clinical isolates were seeded into an aerobic blood culture flask (Bactec, Becton Dickinson) at an estimated concentration of either 1 or 10 CFU/ml blood. Before seeding, the BCF had been filled with human blood from healthy donors. Aliquots from the dilution series were plated on agar and grown over night for viable count. Target concentration was 10 or 100 CFU seeded in 0.5 ml per BCF, corresponding to approximately 1 or 10 CFU/ml blood. The seeded BCF were allowed to incubate for 8 hours at 35° C. and a 5 ml aliquot were taken for subsequent AST. Another aliquot from the same BCF was used for determination of viable count after 8 hours' growth in the BCF.
(§3) A 5 ml aliquot of the cultured clinical isolate from the blood culture flask was filtered using a 100 μm filter to remove resin particles from the culture medium. The sample was thereafter mixed with a 10 ml of lysis buffer capable of selectively lysing any non-microbial cells present in the sample, and incubated for a sufficient amount of time for the non-microbial cells to be lysed. The resulting lysate was filtered through a 0.2 μm filter. Liquid components of the lysate (including components of the lysed non-microbial cells) passed through the filter, whereas microbial cells present in the sample were retained on the filter.
(§4) The retained microbial cells were re-suspended in liquid Mueller Hinton broth medium to form a microbial culture preparation, by back-flushing the filter with culture medium (i.e. flowing the culture medium in the opposite direction to filtration). 100 μl aliquots of the microbial culture preparation were then dispensed into wells of a microtiter plate.
(§5) The wells of the microtiter plate contained between 5 and 13 different concentrations of an antibiotic and different antibiotics. A negative control (i.e. comprising a blood sample with no seeded bacteria) and a positive control sample (i.e. an aliquot of the sample from a seeded BCF but into a well with no antimicrobial agent) were also set up at this stage.
(§6) Focus was performed on each inoculated well and each well was read at intervals of 1 hour. A total of 5 images were taken at time points from 0 to 4 hours after the initiation of the AST assay. The degree of microbial growth in each growth condition was monitored by imaging, by measuring the amount of microbial biomass in each well.
as §1

clinical isolate QM006 [4] = test: as above
Method: as §2, §3, §4, §5, §6, §1

[5] = system: gentamicin resistant E. coli strain; test: AST by imaging at different starting titers; conditions: starting concentration 2×10^6 CFU/ml (Lane B) vs 3×10^5 CFU/ml (Lane A), four hours growth
Description: E. coli grown in blood+BCF media were recovered via a clean-up procedure to remove blood components and only retain viable bacteria in MH-media. Adjustment of the recovered bacteria were made to ensure different titers are used at start of the AST. AST assays were set up to a starting concentration of 3×10^5 CFU/ml (Lane A) and 2×10^6 CFU/ml (Lane B) of a gentamicin resistant E. coli strain. Aliquots of the recovered bacteria were dispensed into a microtiter plate with freeze dried antibiotics at varying concentrations and allowed to grow for four hours before imaging. Shown are microphotographs from a series of different concentration of antibiotics in two-fold dilutions ranging from 64 mg/l to 0.0625 mg/l of gentamicin.

[6] = isolate QM171, experiment repeat no. 1, imaging after 4 h
[7] = isolate QM171, experiment repeat no. 2, imaging after 4 h
[8] = isolate QM171, experiment repeat no. 3, imaging after 4 h
[9] = isolate QM171, experiment repeat no. 4, imaging after 4 h
[10] = isolate QM171, experiment repeat no. 5, imaging after 4 h
[11] = isolate QM171, experiment repeat no. 6, imaging after 4 h
[12] = isolate QM171, experiment repeat no. 7, imaging after 4 h
[13] = isolate QM006, experiment repeat no. 1, imaging after 4 h
[14] = isolate QM006, experiment repeat no. 2, imaging after 4 h
[15] = isolate QM006, experiment repeat no. 3, imaging after 4 h
[16] = isolate QM006, experiment repeat no. 4, imaging after 4 h
[17] = isolate QM006, experiment repeat no. 5, imaging after 4 h
[18] = isolate QM006, experiment repeat no. 6, imaging after 4 h
[19] = isolate QM006, experiment repeat no. 7, imaging after 4 h
[20] = isolate QM006, experiment repeat no. 8, imaging after 4 h
[21] = isolate QM006, experiment repeat no. 9, imaging after 4 h

| Compound | Reference MIC (clinical isolate QM006 [1]) [µg/mL] | Reference MIC (clinical isolate QM171 [2]) [µg/mL] | MIC calculated from microphotographs (clinical isolate QM171 [3]; [6]) [µg/mL] | MIC calculated from microphotographs (clinical isolate QM171 [3]; [7]) [µg/mL] | MIC calculated from microphotographs (clinical isolate QM171 [3]; [8]) [µg/mL] | MIC calculated from microphotographs (clinical isolate QM171 [3]; [9]) [µg/mL] | MIC calculated from microphotographs (clinical isolate QM171 [3]; [10]) [µg/mL] | MIC calculated from microphotographs (clinical isolate QM171 [3]; [11]) [µg/mL] | MIC calculated from microphotographs (clinical isolate QM171 [3]; [12]) [µg/mL] | MIC calculated from microphotographs (clinical isolate QM006 [4]; [13]) [µg/mL] | MIC calculated from microphotographs (clinical isolate QM006 [4]; [14]) [µg/mL] | MIC calculated from microphotographs (clinical isolate QM006 [4]; [15]) [µg/mL] | MIC calculated from microphotographs (clinical isolate QM006 [4]; [16]) [µg/mL] | MIC calculated from microphotographs (clinical isolate QM006 [4]; [17]) [µg/mL] | MIC calculated from microphotographs (clinical isolate QM006 [4]; [18]) [µg/mL] | MIC calculated from microphotographs (clinical isolate QM006 [4]; [19]) [µg/mL] | MIC calculated from microphotographs (clinical isolate QM006 [4]; [20]) [µg/mL] | MIC calculated from microphotographs (clinical isolate QM006 [4]; [21]) [µg/mL] | MIC value at higher bacterial titer compared with lower titer [5] |
| --- | --- | --- | --- | --- | --- | --- | --- | --- | --- | --- | --- | --- | --- | --- | --- | --- | --- | --- | --- |
| CC(C)(O/N=C(\C(=O)N[C@@H]1C(=O)N2C(C(=O)[O-])=C(C[n+]3ccccc3)CS[C@H]12)c1csc(N)n1)C(=O)O [Ceftazidime] | 16 | 2 | 2 (≈ 3.66 µM) | 2 (≈ 3.66 µM) | 2 (≈ 3.66 µM) | 2 (≈ 3.66 µM) | 2 (≈ 3.66 µM) | 2 (≈ 3.66 µM) | 1 (≈ 1.83 µM) | 8 (≈ 14.6 µM) | 16 (≈ 29.3 µM) | 8 (≈ 14.6 µM) | 8 (≈ 14.6 µM) | 8 (≈ 14.6 µM) | 16 (≈ 29.3 µM) | 8 (≈ 14.6 µM) | 16 (≈ 29.3 µM) | 8 (≈ 14.6 µM) | – |
| CO/N=C(\C(=O)N[C@@H]1C(=O)N2C(C(=O)O)=C(COC(C)=O)CS[C@H]12)c1csc(N)n1 [Cefotaxime] | > 8 | > 8 | 8 (≈ 17.6 µM) | > 16 | > 16 | > 16 | > 16 | 16 (≈ 35.1 µM) | 16 (≈ 35.1 µM) | > 8 | > 16 | > 16 | > 16 | > 16 | > 16 | > 16 | > 16 | > 16 | – |
| Gentamicin | > 16 | ≤ 0.5 | 0.5 | 0.5 | 0.5 | 0.5 | 0.5 | 0.5 | 0.25 | 16 | 16 | 16 | 16 | 16 | 16 | 16 | 16 | 16 | higher MIC value |
| C[C@@H](O)[C@H]1C(=O)N2C(C(=O)O)=C(S[C@@H]3CN[C@H](C(=O)N(C)C)C3)[C@H](C)[C@H]12 [Meropenem] | ≤ 0.5 | 1 | ≤ 0.5 | ≤ 0.5 | ≤ 0.5 | ≤ 0.5 | ≤ 0.5 | ≤ 0.5 | ≤ 0.5 | ≤ 0.5 | ≤ 0.5 | ≤ 0.5 | 1 (≈ 2.61 µM) | ≤ 0.5 | ≤ 0.5 | ≤ 0.5 | ≤ 0.5 | ≤ 0.5 | – |
